According to US6677336B2, “Substituted piperazine compounds” (CV Therapeutics, Inc., priority 2000, dated 2004):

Each molecule was assayed on mitochondrial fatty acid oxidation (rat heart mitochondria) (assay: Palmitoyl CoA oxidation in isolated rat heart mitochondria). Details: 100 μM compound; 15 min at 30° C; DMSO control.
Assay type: biochemical
Experimental: Compounds of this invention were evaluated in a rat heart mitochondiral assay as set forth below.
Rat heart mitochondria were isolated by the method of Nedergard and Cannon (methods in Enzymol. 55, 3, 1979).
Palmitoyl CoA oxidation—The Palmityl CoA oxidation was carried out in a total volume of 100 micro liters containing the following agents: 110 mM KCl, 33 mM Tris buffer at pH 8, 2 mM KPi, 2 mM MgCl2, 0.1 mM EDTA, 14.7 microM defatted BSA, 0.5 mM malic acid, 13 mM carnitine, 1 mM ADP, 52 micrograms of mitochondrial protein, and 16 microM 1-C14 palmitoyl CoA (Sp. Activity 60 mCi/mmole; 20 microCi/ml, using 5 microliters per assay). The compounds of this invention were added in a DMSO solution at the following concentrations: 100 microM, 30 microM, and 3 microM. In each assay, a DMSO control was used. After 15 min at 30° C., the enzymatic reaction was centrifuged (20,000 g for 1 min), and 70 microliters of the supernatant was added to an activated reverse phase silicic acid column (approximately 0.5 ml of silicic acid). The column was eluted with 2 ml of water, and 0.5 ml of the eluent was used for scintillation counting to determine the amount of C^14 trapped as C^14 bicarbonate ion.

SMILES	Inhibition of mitochondrial fatty acid oxidation using palmitoyl CoA as substrate - % of Control [%]
Cc1cccc(C)c1NC(=O)CN1CCN(CC(O)CCOc2ccc(F)cc2)CC1 (stereo not shown) [Compound 21, N-(2,6-dimethylphenyl)-2-{4-[4-(4-fluorophenoxy)-2-hydroxybutyl]-piperazinyl}acetamide]	87
Cc1cccc(C)c1NC(=O)CN1CCN(C[C@H](O)COc2ccccc2F)[C@@H](C)C1 [Compound 25, 2-{(3S)-4-[(2S)-3-(2-fluorophenoxy)-2-hydroxypropyl]-3-methylpiperazinyl}-N-(2,6-dimethylphenyl)acetamide]	77
C[C@H]1CN(CC(=O)Nc2c(Cl)cccc2Cl)CCN1C[C@H](O)COc1ccccc1F [Compound 26, 2-{(3S)-4-[(2S)-3-(2-fluorophenoxy)-2-hydroxypropyl]-3-methylpiperazinyl}-N-(2,6-dichlorophenyl)acetamide]	0
COc1cc(NC(=O)CN2CCN(C[C@H](O)COc3ccccc3F)[C@@H](C)C2)cc(C(F)(F)F)c1 [Compound 28, 2-{(3S)-4-[(2S)-3-(2-fluorophenoxy)-2-hydroxypropyl]-3-methylpiperazinyl}-N-(5-methoxy-3-(trifluoromethyl)phenyl]acetamide]	59
C[C@H]1CN(CC(=O)Nc2ccc3c(c2)CCC3)CCN1C[C@H](O)COc1ccccc1F [Compound 29, 2-{(3S)-4-[(2S)-3-(2-fluorophenoxy)-2-hydroxypropyl]-3-methylpiperazinyl}-N-indan-5-ylacetamide]	51
C[C@H]1CN(CC(=O)Nc2cccc3ccccc23)CCN1C[C@H](O)COc1ccccc1F [Compound 30, 2-{(3S)-4-[(2S)-3-(2-fluorophenoxy)-2-hydroxypropyl]-3-methylpiperazinyl}-N-naphthylacetamide]	16
C[C@H]1CN(CC(=O)Nc2ccc(Cl)c3ccccc23)CCN1C[C@H](O)COc1ccccc1F [Compound 31, 2-{(3S)-4-[(2S)-3-(2-fluorophenoxy)-2-hydroxypropyl]-3-methylpiperazinyl}-N-(4-chloronaphthyl)acetamide]	87
C[C@H]1CN(CC(=O)Nc2ccccc2-n2cccc2)CCN1C[C@H](O)COc1ccccc1F [Compound 32, 2-{(3S)-4-[(2S)-3-(2-fluorophenoxy)-2-hydroxypropyl]-3-methylpiperazinyl}-N-(2-pyrrolylphenyl)acetamide]	74
C[C@H]1CN(CC(=O)Nc2ccccc2)CCN1C[C@H](O)COc1ccccc1F [Compound 33, 2-{(3S)-4-[(2S)-3-(2-fluorophenoxy)-2-hydroxypropyl]-3-methylpiperazinyl}-N-phenylacetamide]	63
C[C@H]1CN(CC(=O)Nc2ccccc2Cl)CCN1C[C@H](O)COc1ccccc1F [Compound 34, 2-{(3S)-4-[(2S)-3-(2-fluorophenoxy)-2-hydroxypropyl]-3-methylpiperazinyl}-N-(2-chlorophenyl)acetamide]	48
Cc1ccc(NC(=O)CN2CCN(C[C@H](O)COc3ccccc3F)[C@@H](C)C2)c(Cl)c1 [Compound 35, 2-{(3S)-4-[(2S)-3-(2-fluorophenoxy)-2-hydroxypropyl]-3-methylpiperazinyl}-N-(2-chloro-4-methylphenyl)acetamide]	45
C=C(C)c1ccccc1NC(=O)CN1CCN(C[C@H](O)COc2ccccc2F)[C@@H](C)C1 [Compound 36, 2-{(3S)-4-[(2S)-3-(2-fluorophenoxy)-2-hydroxypropyl]-3-methylpiperazinyl}-N-[2-(1-methylvinyl)phenyl]acetamide]	61
Cc1ccccc1NC(=O)CN1CCN(C[C@H](O)COc2ccccc2F)[C@@H](C)C1 [Compound 37, 2-{(3S)-4-[(2S)-3-(2-fluorophenoxy)-2-hydroxypropyl]-3-methylpiperazinyl}-N-(2-methylphenyl)acetamide]	55
Cc1cccc(C(C)C)c1NC(=O)CN1CCN(C[C@H](O)COc2ccccc2F)[C@@H](C)C1 [Compound 38, 2-{(3S)-4-[(2S)-3-(2-fluorophenoxy)-2-hydroxypropyl]-3-methylpiperazinyl}-N-[6-methyl-2-(methylethyl)phenyl]acetamide]	78
CSc1cccc(NC(=O)CN2CCN(C[C@H](O)COc3ccccc3F)[C@@H](C)C2)c1 [Compound 39, 2-{(3S)-4-[(2S)-3-(2-fluorophenoxy)-2-hydroxypropyl]-3-methylpiperazinyl}-N-(3-methylthiophenyl)acetamide]	60
COc1cc(Cl)c(C)cc1NC(=O)CN1CCN(C[C@H](O)COc2ccccc2F)[C@@H](C)C1 [Compound 40, 2-{(3S)-4-[(2S)-3-(2-fluorophenoxy)-2-hydroxypropyl]-3-methylpiperazinyl}-N-(4-chloro-2-methoxy-5-methylphenyl)acetamide]	23
C[C@H]1CN(CC(=O)Nc2ccc(N(C)C)cc2)CCN1C[C@H](O)COc1ccccc1F [Compound 41, 2-{(3S)-4-[(2S)-3-(2-fluorophenoxy)-2-hydroxypropyl]-3-methylpiperazinyl}-N-[4-(dimethylamino)phenyl]acetamide]	64
COc1ccc(NC(=O)CN2CCN(C[C@H](O)COc3ccccc3F)[C@@H](C)C2)c(OC)c1 [Compound 42, 2-{(3S)-4-[(2S)-3-(2-fluorophenoxy)-2-hydroxypropyl]-3-methylpiperazinyl}-N-(2,4-dimethoxyphenyl)acetamide]	68
C[C@H]1CN(CC(=O)Nc2ccc(Cl)c(Cl)c2)CCN1C[C@H](O)COc1ccccc1F [Compound 43, 2-{(3S)-4-[(2S)-3-(2-fluorophenoxy)-2-hydroxypropyl]-3-methylpiperazinyl}-N-(3,4-dichlorophenyl)acetamide]	19
C[C@H]1CN(CC(=O)Nc2ccc(Cl)cc2)CCN1C[C@H](O)COc1ccccc1F [Compound 44, 2-{(3S)-4-[(2S)-3-(2-fluorophenoxy)-2-hydroxypropyl]-3-methylpiperazinyl}-N-(4-chlorophenyl)acetamide]	81
C[C@H]1CN(CC(=O)Nc2cccc(Cl)c2)CCN1C[C@H](O)COc1ccccc1F [Compound 45, 2-{(3S)-4-[(2S)-3-(2-fluorophenoxy)-2-hydroxypropyl]-3-methylpiperazinyl}-N-(3-chlorophenyl)acetamide]	58
C[C@H]1CN(CC(=O)Nc2cc(Cl)cc(Cl)c2)CCN1C[C@H](O)COc1ccccc1F [Compound 46, 2-{(3S)-4-[(2S)-3-(2-fluorophenoxy)-2-hydroxypropyl]-3-methylpiperazinyl}-N-(3,5-dichlorophenyl)acetamide]	7
COc1ccc(NC(=O)CN2CCN(C[C@H](O)COc3ccccc3F)[C@@H](C)C2)cc1 [Compound 47, 2-{(3S)-4-[(2S)-3-(2-fluorophenoxy)-2-hydroxypropyl]-3-methylpiperazinyl}-N-(4-methoxyphenyl)acetamide]	80
Cc1ccc(NC(=O)CN2CCN(C[C@H](O)COc3ccccc3F)[C@@H](C)C2)cc1 [Compound 48, 2-{(3S)-4-[(2S)-3-(2-fluorophenoxy)-2-hydroxypropyl]-3-methylpiperazinyl}-N-(4-methylphenyl)acetamide]	61
Cc1cccc(NC(=O)CN2CCN(C[C@H](O)COc3ccccc3F)[C@@H](C)C2)c1 [Compound 49, 2-{(3S)-4-[(2S)-3-(2-fluorophenoxy)-2-hydroxypropyl]-3-methylpiperazinyl}-N-(3-methylphenyl)acetamide]	66
C[C@H]1CN(CC(=O)Nc2ccc(F)cc2)CCN1C[C@H](O)COc1ccccc1F [Compound 50, 2-{(3S)-4-[(2S)-3-(2-fluorophenoxy)-2-hydroxypropyl]-3-methylpiperazinyl}-N-(4-fluorophenyl)acetamide]	80
C[C@H]1CN(CC(=O)Nc2ccc(C#N)cc2)CCN1C[C@H](O)COc1ccccc1F [Compound 51, 2-{(3S)-4-[(2S)-3-(2-fluorophenoxy)-2-hydroxypropyl]-3-methylpiperazinyl}-N-(4-cyanophenyl)acetamide]	99
COc1ccccc1NC(=O)CN1CCN(C[C@H](O)COc2ccccc2F)[C@@H](C)C1 [Compound 53, 2-{(3S)-4-[(2S)-3-(2-fluorophenoxy)-2-hydroxypropyl]-3-methylpiperazinyl}-N-(2-methoxyphenyl)acetamide]	81
